Patent publication US4399283A, “Pharmaceutical salts of 4'-(9-acridinylamino)-methanesulfon-m-anisidide” (Warner Lambert Company, priority 1981, dated 1983)

Columns and labels:
[1] = assay type: physicochemical; settings: 10 mg/ml, after storing at 5 °C
Description: The salts of th present invention allow one to prepare solutions of m-AMSA without the aid of dimethylacetamide. Depending upon the salt, concentration and temperature,standing may result in certain of the solutions of salts forming gels. However, a salt need only remain in solution for a period long enough for it to be administered to a patient.

[2] = tested on: mice; settings: literature (Cain et al.); cited from earlier work

| Compound | Return of gelled solution to fluid state by warming to room temperature and shaking [1] | Activity in treating mammals in studies using mice [2] |
| --- | --- | --- |
| COc1cc(NS(C)(=O)=O)ccc1Nc1c2ccccc2nc2ccccc12 [gluconate, 4'-(9-acridinylamino)methanesulfon-m-anisidide D-gluconate] | this could not be achieved | – |
| COc1cc(NS(C)(=O)=O)ccc1Nc1c2ccccc2nc2ccccc12 [m-AMSA, 4'-(9-acridinylamino)-methanesulfon-m-anisidide] | – | high degree of activity |
